Measurements published in patent publication US7482362B2, “Substituted-4-quinolones” (priority 2000, dated 2009).

Legend:
IL-2 = IL-2 release from ConA-stimulated human PBMC, sandwich ELISA; type: cell-based; settings: ConA 1 μg/ml, culture supernatant, FIG. 4B
Description: Human peripheral blood mononuclear cells (PBMC) were isolated from heparinised whole blood by buoyant density centrifugation over Histopague 1077 (Sigma, Poole, UK) 600 g for 20 minutes. PBMC harvested from the ‘buffy’ layers were washed and then aliquoted into 96-well plates at 100,000 per well. PBMC were exposed to bacterial quorum sensing molecules (PQS or OdDHL) at concentrations ranging from 0.78125 to 100 μM and then stimulated with 1 μg/ml of Concanavalin A (ConA). After an overnight culture 50 μl of the culture supernatant was removed for the detection of IL-2 released by ‘sandwich’ ELISA. […] Following an 18-hour pulse the human PBMC were harvested onto fibreglass filters which were then counted in the presence of MicroScint-O with the Packard TopCount scintillation counter.
Human leucocytes when stimulated with ConA released the cytokine IL-2. The levels of cytokine produced in the culture supernatants after 24 h were determined in a ‘sandwich’ ELISA. […] Following four washes, the bound biotinylated antibody was detected with 50 μl of a 1:1,000 dilution of Streptavidin-peroxidase (BD Pharmingen, UK). […] The enzyme reaction was stopped with 50 μl of 2.5 M H2SO4 after a development of 10 minutes at room temperature and the development was read at 450 nm with a spectrophotometric 96-well plate reader.

TNF-α = assay: In vitro LPS stimulation of human PBMC for the release of TNF-α, sandwich ELISA; type: cell-based; settings: FIG. 4C
Description: Human PBMC, at 100,000 cell per well, were stimulated with 1×10^−5 μg/ml LPS E. coli strain 055:B5. Following culture for 24 hours the cell culture supernatants were collected and tested for TNF-α levels by ‘sandwich’ ELISA similarly described above for the IL-2 detection assay.

[1] = test system: Human peripheral blood mononuclear cells (PBMC); assay: In vitro proliferation assay of ConA-stimulated human PBMC (3H-thymidine); type: cell-based; settings: ConA 1 μg/ml, 0.78125 to 100 μM; FIG. 4A
Description: Human peripheral blood mononuclear cells (PBMC) were isolated from heparinised whole blood by buoyant density centrifugation over Histopague 1077 (Sigma, Poole, UK) 600 g for 20 minutes. PBMC harvested from the ‘buffy’ layers were washed and then aliquoted into 96-well plates at 100,000 per well. PBMC were exposed to bacterial quorum sensing molecules (PQS or OdDHL) at concentrations ranging from 0.78125 to 100 μM and then stimulated with 1 μg/ml of Concanavalin A (ConA). After an overnight culture 50 μl of the culture supernatant was removed for the detection of IL-2 released by ‘sandwich’ ELISA. The cells were returned to culture for another 24 hours before 0.25 μCi per well of ^3H-thymidine was added. Following an 18-hour pulse the human PBMC were harvested onto fibreglass filters which were then counted in the presence of MicroScint-O with the Packard TopCount scintillation counter.

murine splenocytes = assay: ConA mitogen-stimulated proliferation of murine splenocytes ([3H]-thymidine incorporation); type: cell-based, mouse (BALB/c); settings: ConA 1 μg/ml, 100,000 spleen cells, compound about 10 to 0.2 μM; FIG. 1
Description: 1. ConA Mitogen-Stimulated Proliferation of Murine Splenocytes
The concanavalin A (ConA) cell proliferation assay was used to assess the effect of the title compound on T-cell activation and proliferation. Proliferation was assessed by the incorporation of [^3H]-thymidine into DNA. Eight-week-old female BALB/c mice were obtained from Harlan (Bicester, Oxon, UK) and given food and water ad libitum. Splenocyte suspensions were prepared by removing the spleens and placing them into RPMI 1640 medium. The spleens were forced through 70 μm pore size wire gauzes using the plunger from a 5 ml syringe to produce a single cell suspension. The cells were pelleted by centrifugation, and erythrocytes were lysed with 0.017M Tris, 0.144M ammonium chloride buffer, pH 7.2. Leucocytes were washed twice with RPMI 1640 medium with 2% (vol/vol) foetal calf serum (FCS) and resuspended in complete cell culture medium (CTCM) consisting of RPMI 1640 medium with 5% FCS, 2 mM L-glutamine, and 5×10−5 M 2-mercaptoethanol. The title compound was tested at doubling down dilutions ranging from about 10 to 0.2 μM in a final volume of 200 μl of CTCM, containing ConA (Sigma, Poole, UK) at 1 μg/ml and 100,000 spleen cells. […] After the addition of 25 μl of MicroScint-O (Packard) to each well the filters were counted with the Packard TopCount scintillation counter. […]

Mono Mac 6 cells = assay: Mono Mac 6 cellular viability by MTS conversion to formazan; type: cell-based, human; settings: Mono Mac 6, 100,000 cells per well, overnight exposure, 3.90625 to 500 μM; FIG. 2, 3
Description: The human monocytic cell line, Mono Mac 6, was treated with concentrations of bacterial quorum sensing molecules 2-heptyl-3-hydroxy-4(1H)quinolone (PQS), N-(3-oxododecanoyl)-L-homoserine lactone (OdDHL) and N-(3-oxohexanoyl)-L-homoserine lactone. Cells at 100,000 per well were exposed to quorum sensing molecules ranging from 3.90625 to 500 μM after which the cells were stimulated with 10 ng/ml E. coli LPS and 5 ng/ml phorbol-myristrate acetate to induce the overnight release of TNF-αinto the culture media. A tetrazolium compound (3-(4,5-dimethylthazol-2-yl)-5-(3-carboxymethoxyphenyl)-2-(4-sulfophenyl)-2H-tetrazolium, inner salt MTS was added to the cells to determine cellular viability after treatment with the quorum sensing molecules. MTS is bioreduced by cells into a formazan product that is soluble in tissue culture medium. The production of formazan was determined by measuring the absorbance of the compound at 450 nm. The results are shown in FIG. 2. A titration of cell numbers was included to correlate to the number of viability cells in the treated wells as set out in the table below.

CCCCCCCCCC(=O)CC(=O)N[C@H]1CCOC1=O [OdDHL, N-(3-oxododecanoyl)-L-homoserine lactone]
IL-2 secretion (IL-2): inhibits | TNF-α production (TNF-α; LPS E. coli 055:B5, 24 hours): inhibits | human PBMC cell proliferation [1]: inhibits

CCCCCCCc1[nH]c2ccccc2c(=O)c1O [PQS, 2-heptyl-3-hydroxy-4(1H)quinolone]
TNF-α production at high dose (TNF-α; LPS-stimulated, high dose): may enhance | TNF-α production at low dose (TNF-α; LPS-stimulated, low dose): no effect | splenocyte proliferation (counts per minute, [3H]-thymidine incorporation) (murine splenocytes): inhibits | cell viability, as adjudged by MTS conversion (Mono Mac 6 cells): no effect
